# Measurements from patent US20140303116A1, “CARNOSINE HYALURONIC ACID MIXTURES AND THEIR USE” (priority 2010, published 2014).
# Tests used:
# skin fibroblasts = experiment: scratch assay, migration of skin fibroblasts; type: cell-based; conditions: 48 hours of treatment after scratching; doses of between 0.2 and 0.8%; mitomycin C pre-treated cells, DMEM with 10% FCS
# Procedure: The solutions obtained from Examples 2 and 3 were used to prepare dilute […], and these solutions, whose pH initially changed from 3 to 1.5, were neutralized by the addition of NaOH.
# The effect of the above solutions on the migration of skin fibroblasts was tested in vitro by means of a scratch assay. In this test, cells mimic cell migration during an in vivo tissue repair.
# The method is based on scratch-wounding a confluent monolayer of cells so that the cells capable of migration are stimulated to cover the artificial gap in an attempt to re-establish new cell-to-cell contacts. […]
# In this assay, the fibroblasts were scratch-wounded and then treated with the test substances at different concentrations. At 48 hours after treatment, cells were photographed and stained with crystal violet, and the migrated cells were counted under an optical microscope. […]
# Cells were cultivated in DMEM with 10% FCS and treated with the dilute solutions of L-carnosine hyaluronate as described above for 48 hours after scratching. […] Cells were counted after staining with crystal violet.
# Cells were cultivated in DMEM with 10% FCS and treated with the dilute solutions of D-carnosine hyaluronate as described above for 48 hours after scratching. […] Cells were counted after staining with crystal violet.
# collagen III = collagen III expression in fibroblasts by Western blotting; type: cell-based; conditions: fibroblasts exposed to 1.0 and 1.5% for 48 hours, beta-actin internal control
# Procedure: The effect of solutions diluted to 1% and 1.5% and neutralized according to Example 4 on the production of collagen by fibroblasts treated with these solutions was verified.
# The Western blotting technique was used to verify any production of collagen by the fibroblasts treated with L- and D-carnosine hyaluronate for 48 hours.
# Fibroblast cultures were lysed with RIPA buffer at pH 7.4. Then, the samples were run onto a 10% SDS-polyacrylamide gel under reducing conditions. When the run has been completed, the proteins were transferred onto nitrocellulose membranes, incubated with anti-collagen III antibodies and then with the secondary antibody. […] The beta-actin expression was used as an internal control.
substance,measurement,setting,value
D-carnosine hyaluronate,migration of skin fibroblasts (migrated cell count),skin fibroblasts,statistically significantly migrate
same,collagen III synthesis vs control cells treated with saline,collagen III,synthesize more collagen III than control cells
L-carnosine hyaluronate,migration of skin fibroblasts (migrated cell count),skin fibroblasts,statistically significantly migrate
same,collagen III synthesis vs control cells treated with saline,collagen III,synthesize more collagen III than control cells
